Some test systems named below: 786-0 renal; HOP-62 NSCLC; K-562 leukemia; MDA-MB-435; RXF 393 renal; SF-295 CNS; SN12C renal; SR leukemia; U251 CNS; UACC-62 melanoma.
Common to all, as to experiment: NCI anticancer screen, dose series, 48 h

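All cell lines were grown in 96-well plates and treated with compound for 48 hours. The concentration for 50% growth inhibition is given as GI50. TGI denotes the concentration required for complete inhibition of growth.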

`CCOC(=O)c1sc2ncn(Cc3cccc(Cl)c3)c(=O)c2c1C`: the GI50 in the assay on 786-0 renal was 13.1 µM; in the assay on HOP-62 NSCLC, 12 µM; in the assay on K-562 leukemia it was 12.3 µM; in the assay on MDA-MB-435, 13.9 µM; in the assay with RXF 393 renal, 16.6 µM; in the assay with SF-295 CNS, 12 µM. Also, the GI50 with SN12C renal was 15.3 µM; in the assay on SR leukemia, 3.33 µM; with U251 CNS, 12.9 µM; with UACC-62 melanoma, 13.4 µM. Moreover, the TGI is 25.7 µM in the assay on 786-0 renal; 24.4 µM in the assay on HOP-62 NSCLC; 24.8 µM with K-562 leukemia; 26.9 µM in the assay on MDA-MB-435; 30.2 µM in the assay with RXF 393 renal; 24.4 µM in the assay on SF-295 CNS. The TGI in the assay on SN12C renal is 28.6 µM; in the assay with SR leukemia, 12.7 µM; in the assay with U251 CNS, 25.6 µM; with UACC-62 melanoma, 26.8 µM.

For `CCOC(=O)Oc1c(OC)cc(C(=O)c2ccc(OC)c(OC(=O)CCl)c2OC)cc1OC`, the GI50 was 3.45 µM in the assay with 786-0 renal; 0.836 µM with HOP-62 NSCLC; 0.457 µM with K-562 leukemia; 0.239 µM with MDA-MB-435; 1.54 µM with RXF 393 renal; 0.886 µM with SF-295 CNS. In addition, the GI50 in the assay with SN12C renal was 3.39 µM; in the assay on SR leukemia, 0.459 µM; with U251 CNS, 0.926 µM; with UACC-62 melanoma, 2.67 µM. In addition, the TGI is more than 100 µM with 786-0 renal; more than 100 µM with HOP-62 NSCLC; more than 100 µM in the assay with K-562 leukemia; 0.773 µM in the assay with MDA-MB-435; 8.08 µM in the assay with RXF 393 renal; 33.7 µM with SF-295 CNS. For the same molecule, the TGI in the assay on SN12C renal, in the assay with SR leukemia, in the assay on U251 CNS and in the assay with UACC-62 melanoma was more than 100 µM in each case.

As to `COc1ccc(/C=C(\C#N)n2nnc3cc(Cl)ccc32)cc1`, the GI50 in the assay on 786-0 renal is 0.709 µM; with HOP-62 NSCLC it was 0.887 µM; in the assay with K-562 leukemia it was 0.217 µM; in the assay with MDA-MB-435 it was 0.124 µM; with RXF 393 renal it was 0.787 µM; with SF-295 CNS, 1.18 µM. Besides, the GI50 with SN12C renal was 0.662 µM; in the assay on SR leukemia it was 0.336 µM; with U251 CNS it was 0.63 µM; with UACC-62 melanoma, 0.382 µM. Further, the TGI was 8.61 µM in the assay with 786-0 renal; 11.1 µM with HOP-62 NSCLC; more than 100 µM in the assay with K-562 leukemia; 0.342 µM in the assay on MDA-MB-435; 2.62 µM in the assay on RXF 393 renal; 6.43 µM in the assay with SF-295 CNS. The TGI in the assay with SN12C renal is more than 100 µM; in the assay on SR leukemia, more than 100 µM; in the assay on U251 CNS, 9.53 µM; in the assay on UACC-62 melanoma, 9.66 µM.

Consider `O=C(O)CSCC(=O)c1ccccc1`, for which the TGI with 786-0 renal, with HOP-62 NSCLC, in the assay with K-562 leukemia, in the assay on MDA-MB-435, in the assay with RXF 393 renal and with SF-295 CNS was more than 100 µM in each case. Moreover, the TGI in the assay on SN12C renal, in the assay with SR leukemia, in the assay on U251 CNS and in the assay with UACC-62 melanoma was more than 100 µM throughout.

Regarding `O=C1NC(=O)C2=C1CCC2O` (stereo not given), the TGI in the assay with 786-0 renal, in the assay with HOP-62 NSCLC, with K-562 leukemia, in the assay on MDA-MB-435, in the assay on RXF 393 renal and in the assay on SF-295 CNS was more than 100 µM throughout. The TGI in the assay with SN12C renal, in the assay with SR leukemia, with U251 CNS and in the assay on UACC-62 melanoma was more than 100 µM each time.

For `COC(=O)c1ccc(-c2nc3cc(F)c(F)cc3nc2C#N)cc1`, the GI50 with 786-0 renal was 26.4 µM; with HOP-62 NSCLC, 9.9 µM; with K-562 leukemia, 1.9 µM; with MDA-MB-435 it was 8.21 µM; in the assay with RXF 393 renal, 8.53 µM; with SF-295 CNS it was 7.26 µM. Further, the GI50 with SN12C renal was 1.66 µM; in the assay with SR leukemia, 1.25 µM; in the assay with U251 CNS it was 10.1 µM; in the assay on UACC-62 melanoma, 2.66 µM. The TGI in the assay with 786-0 renal worked out at 50 µM; in the assay on HOP-62 NSCLC, 18 µM; with K-562 leukemia it was 16.3 µM; with MDA-MB-435, 16.4 µM; in the assay on RXF 393 renal it was 17.6 µM; in the assay on SF-295 CNS, 15.5 µM. The TGI is 4.9 µM in the assay with SN12C renal, 2.77 µM in the assay with SR leukemia, 21.4 µM with U251 CNS and 5.83 µM in the assay on UACC-62 melanoma.

For the molecule `COc1ccc2c(CN3CCC(CO)CC3)cc3cc4c(cc3c2c1)OCO4`, the GI50 in the assay on 786-0 renal is 0.227 µM; in the assay with HOP-62 NSCLC it was 0.272 µM; in the assay with K-562 leukemia it was 0.15 µM; in the assay with MDA-MB-435 it was 0.275 µM; with RXF 393 renal, 0.0843 µM; in the assay on SF-295 CNS, 0.241 µM. In addition, the GI50 in the assay on SN12C renal was 0.247 µM; in the assay with SR leukemia, 0.0666 µM; in the assay on U251 CNS it was 0.265 µM; with UACC-62 melanoma, 0.235 µM. Also, the TGI stood at 4.65 µM in the assay with 786-0 renal; 2.03 µM with HOP-62 NSCLC; 3.07 µM in the assay with K-562 leukemia; 1.41 µM in the assay on MDA-MB-435; 0.847 µM with RXF 393 renal; 3.29 µM in the assay on SF-295 CNS. The TGI with SN12C renal was determined as 4.37 µM; in the assay with SR leukemia it was 0.712 µM; with U251 CNS it was 8.82 µM; with UACC-62 melanoma, 0.539 µM.

For the molecule `COc1ccc(C(=O)c2cc(OC)c(OC)c(OC)c2)cc1/C=C/C(=O)c1ccc(O)cc1`, the GI50 with 786-0 renal was 1.66 µM; in the assay on HOP-62 NSCLC, 21.1 µM; with K-562 leukemia it was 0.357 µM; in the assay on MDA-MB-435 it was 1.18 µM; in the assay on RXF 393 renal, 3.57 µM; in the assay with SF-295 CNS, 6.5 µM. Also, the GI50 in the assay on SN12C renal is 2.66 µM; in the assay on SR leukemia, 0.433 µM; in the assay on U251 CNS, 4.58 µM; in the assay with UACC-62 melanoma, 1.69 µM. For the same molecule, the TGI in the assay on 786-0 renal is 3.74 µM; in the assay on HOP-62 NSCLC, 53.4 µM; with K-562 leukemia, more than 100 µM; in the assay on MDA-MB-435, 11.3 µM; with RXF 393 renal, 14.9 µM; in the assay with SF-295 CNS, 20.1 µM. In addition, the TGI in the assay on SN12C renal is 12.6 µM; in the assay with SR leukemia it was more than 100 µM; in the assay with U251 CNS, 18.3 µM; in the assay on UACC-62 melanoma, 3.77 µM.

The record behind these values is PubChem BioAssay (NCI).
